In PubChem BioAssay (NCI):
Values joined by “and” are separate entries in the source; they are usually repeats but may differ in a detail not shown here. Equal values may be shown once.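 A five-concentration, 48-hour dose response in 96-well plates underlies each endpoint, interpolated linearly between surrounding concentrations. Abbreviation: GI50, concentration required for 50% inhibition of growth. At the TGI there is no net growth.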

Experiments:
Assay in all cases: NCI anticancer screen, dose series, 48 h
[1] = test system: A498 renal
[2] = test system: A549 NSCLC
[3] = test system: BT-549 breast
[4] = test system: CAKI-1 renal
[5] = test system: HT29 colon
[6] = test system: SF-539 CNS
[7] = test system: SK-MEL-2 melanoma
[8] = test system: SR leukemia
[9] = test system: TK-10 renal
[10] = test system: UACC-257 melanoma

Structure (SMILES)	GI50 [1]	TGI [1]	GI50 [2]	TGI [2]	GI50 [3]	TGI [3]	GI50 [4]	TGI [4]	GI50 [5]	TGI [5]	GI50 [6]	TGI [6]	GI50 [7]	GI50 [8]	TGI [8]	TGI [9]	TGI [10]	TGI [7]	GI50 [9]	GI50 [10]
N#CCCNc1nonc1-c1nc2ccccc2n1CC(=O)c1ccc(N)cc1	< 0.01 µM	0.0873 µM	0.0345 µM	> 100 µM	0.0289 µM	22.9 µM	0.0701 µM	> 100 µM	0.0226 µM	0.0701 µM	0.0252 µM	1.19 µM	0.498 µM	< 0.0135 µM	> 100 µM	> 90.9 µM	> 100 µM			
O=C(N/N=C/c1ccc(Cl)cc1)c1ccc(NC(=O)c2ccccn2)cc1	44.9 µM	> 100 µM	15.9 µM	68 µM	25 µM	99.6 µM	21.1 µM	> 100 µM	> 100 µM	> 100 µM	15.8 µM	40.3 µM	17.7 µM	70.8 µM	> 100 µM	46.8 µM	> 100 µM	> 100 µM	16.6 µM	> 100 µM
C=CCC1(O)c2ccccc2C(=O)c2c(OCC(=O)OCC)ccc(OCC(=O)OCC)c21 (configuration not stated)	> 100 µM	> 100 µM	> 100 µM	> 100 µM	> 100 µM	> 100 µM	> 100 µM	> 100 µM	> 100 µM	> 100 µM	> 100 µM	> 100 µM	> 100 µM	82.6 µM	> 100 µM	> 100 µM	> 100 µM	> 100 µM	> 100 µM	> 100 µM
C[N+]1([O-])C2CCC1CC(OC(=O)C(CO)c1ccccc1)C2 (configuration not stated)		> 100 µM		> 100 µM		> 100 µM		> 100 µM		> 100 µM		> 100 µM			> 100 µM	> 100 µM	> 100 µM	> 100 µM		
COC(=O)c1c2c(c(C)[n+]([O-])c1C)C(=O)C(NCc1ccc(OC)cc1)=CC2=O	2.06 µM	4.97 µM	2.9 µM	10.2 µM	2.96 µM	13.3 µM	2.9 µM	11.2 µM	2.15 µM	> 100 µM	1.68 µM	3.39 µM	2.23 µM	2.47 µM	> 100 µM	20.1 µM	3.42 µM	5.88 µM	4.62 µM	1.63 µM
CC(C)=CC[C@@H]1CC2(CC=C(C)C)C(=O)C(OC3(C(=O)c4ccccc4)C(=O)C4(CC=C(C)C)C[C@@H](CC=C(C)C)C(C)(C)C(CC=C(C)C)(C4=O)C3=O)(C(=O)c3ccccc3)C(=O)C(CC=C(C)C)(C2=O)C1(C)C (some centres not stated)	1.01 µM	2.09 µM	1.73 µM	6.05 µM	0.884 µM	1.89 µM	1.49 µM	5.95 µM	1.41 µM	4.31 µM	1.14 µM	2.65 µM	1.01 µM	1.67 µM	50 µM	8.04 µM	3.77 µM	3.04 µM	1.54 µM	1.4 µM
O=c1c2ccccc2nc(-c2cccc([N+](=O)[O-])c2)n1O		> 85.1 µM		> 100 µM		80.8 µM		> 100 µM		> 100 µM		> 100 µM			> 100 µM	> 100 µM	> 100 µM	91.1 µM		
CC1(C)N=C(N)N=C(N)N1c1ccc(OCCCNC(=O)Nc2ccc(S(=O)(=O)F)cc2)c(Cl)c1	4.57 µM	99.4 µM	0.0732 µM	> 100 µM	11.5 µM	> 100 µM	17.9 µM	> 95 µM	0.1 µM	> 100 µM	1.3 µM	> 67.4 µM	0.79 µM	0.0376 µM	> 100 µM	> 100 µM	> 100 µM	> 100 µM	0.907 µM	5.11 µM
Cc1ccc(NC(=O)c2ccc(CN3CCN(C)CC3)cc2)cc1Nc1nc(-c2cccnc2)cs1	16 µM and > 10 µM	29.6 µM and > 10 µM	12.1 µM and 8.01 µM	27.1 µM and > 10 µM	8.5 µM and 3.79 µM	22.1 µM and > 10 µM	11.6 µM and > 10 µM	24.9 µM and > 10 µM	3.5 µM and 3.23 µM	13.7 µM and > 10 µM	1.7 µM and 1.13 µM	6.81 µM and 2.48 µM	13.9 µM and > 10 µM	2.72 µM and 1.91 µM	18.6 µM and 4.67 µM	30.6 µM and > 10 µM	20.2 µM and > 10 µM	27.3 µM and > 10 µM	16.8 µM and > 10 µM	7.9 µM and 7.34 µM
Cn1cc(-c2ccc3nc(-c4ccc(CC(=O)Nc5cc(C(C)(C)C)no5)cc4)cnc3c2)cn1	0.0439 µM	0.185 µM	0.0577 µM	> 3 µM	0.206 µM	> 3 µM	0.0102 µM	> 3 µM	0.0859 µM	> 3 µM	0.0274 µM	> 3 µM	0.0237 µM	< 0.0445 µM	> 3 µM	> 3 µM	> 3 µM	0.581 µM	0.0139 µM	0.0784 µM
O=C(CCCc1ccc(N(CCCl)CCCl)cc1)NCc1ccccc1	2.59 µM	20.8 µM	6.88 µM	> 100 µM	3.86 µM	27.2 µM	2.33 µM	14.4 µM	8.21 µM	52 µM	17.8 µM	73.8 µM	21.8 µM	0.978 µM	3.66 µM	56.8 µM	55.5 µM	55 µM	15.5 µM	12.1 µM
